# Patent US10538555B2, “Macrocyclic inhibitors of the PD-1/PD-L1 and CD80(B7-1)/PD-L1 protein/protein interactions” (BRISTOL-MYERS SQUIBB COMPANY, priority 2014, dated 2020)
# *1 amine or outer side, *2 acyl side, *3 side chain or, on linkers, in order; H or OH if unused. Where a SMILES comes first, the peptide text is derived from it. Bridges are numbered along the chain shown (N, C = ends). [ ]: non-standard residue; d: D form. ξ: configuration not given here. Trp(1-CH2COOH) = N[C@@H](Cc1cn(CC(=O)O)c2ccccc12)C(=O)O; Trp(βS-Me) = C[C@@H](c1c[nH]c2ccccc12)[C@H](N)C(=O)O; Phe(3,4,5-F3) = N[C@@H](Cc1cc(F)c(F)c(F)c1)C(=O)O; Phe(3,4-F2) = N[C@@H](Cc1ccc(F)c(F)c1)C(=O)O; NMePhe(4-F) = CN[C@@H](Cc1ccc(F)cc1)C(=O)O; X4 = CC1(C)CC[C@H](C(=O)[*:2])N1[*:1]; d(cisHyp) = O=C(O)[C@H]1C[C@@H](O)CN1; Bta = N[C@@H](Cc1csc2ccccc12)C(=O)O; Hyp = O=C(O)[C@@H]1C[C@@H](O)CN1; NMeF = CN[C@@H](Cc1ccccc1)C(=O)O; X1 = O=C([C@H]1COCCN1[*:1])[*:2]; NMeNle = CCCC[C@H](NC)C(=O)O; Pip = O=C(O)[C@@H]1CCCCN1; dPip = O=C(O)[C@H]1CCCCN1; hSer = N[C@@H](CCO)C(=O)O; NMeA = CN[C@@H](C)C(=O)O; Orn = NCCC[C@H](N)C(=O)O; dThz = O=C(O)[C@H]1CSCN1; Dab = NCC[C@H](N)C(=O)O; Dap = NC[C@H](N)C(=O)O; ξC = NC(CS)C(=O)O; Sar = CNCC(=O)O
# Target: T1, Human PD-L1/PD-1 (Homo sapiens, UniProt Q9NZQ7)
# T1 construct: TVMV protease cleavage site (C); made in house; host or cells: HEK293T cells
# Experiment: HTRF Human PD-L1/PD-1 binding assay (PD-1-Ig/PD-L1-His)
# Details: PD-L1-His 10 nM, PD-1-Ig 20 nM; class symbol; read-out: HTRF Human PD-L1/PD-1 Binding Assay IC50 Range
# Procedure, shortened: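 Step 1: compound with PD-L1-His (10 nM final), 15 min. Step 2: PD-1-Ig (20 nM final), 15 min. Step 3: Eu-cryptate anti-Ig (1 nM) plus APC anti-His (20 nM), 30 min equilibration. Signal taken as 665 nm/620 nm ratio.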
# T1 sequence (Q9NZQ7 with tags, fused parts or gaps): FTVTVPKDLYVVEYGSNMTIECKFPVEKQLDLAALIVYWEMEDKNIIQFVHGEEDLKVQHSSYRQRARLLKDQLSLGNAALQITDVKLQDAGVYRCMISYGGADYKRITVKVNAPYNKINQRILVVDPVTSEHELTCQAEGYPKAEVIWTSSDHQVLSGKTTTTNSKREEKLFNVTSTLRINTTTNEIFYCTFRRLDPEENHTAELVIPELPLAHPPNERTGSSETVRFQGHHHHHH
row,SMILES,IC50 [nM]
1,CCCC[C@H]1C(=O)N(C)[C@@H](CCCC)C(=O)N[C@@H](CCC(=O)O)C(=O)N[C@H](C(=O)NCC(N)=O)CSCC(=O)N[C@@H](Cc2ccc(O)cc2)C(=O)N2CCCC[C@H]2C(=O)N[C@@H](CC(N)=O)C(=O)N2CCC[C@H]2C(=O)N[C@@H](Cc2cnc[nH]2)C(=O)N[C@@H](CCC(=O)O)C(=O)N2C[C@H](O)C[C@H]2C(=O)N[C@@H](Cc2c[nH]c3ccccc23)C(=O)N[C@@H](CO)C(=O)N[C@@H](Cc2c[nH]c3ccccc23)C(=O)N1C [Example 1252] ({CH2CO}-Y[Pip]NPHE[Hyp]WSW[NMeNle][NMeNle]ECG-NH2; thioether N-14),1 to 9.9
2,"CCCC[C@H]1C(=O)N2CCC[C@@H]2C(=O)N[C@@H](CCN)C(=O)N[C@@H](C(C)C)C(=O)N(C)[C@@H](Cc2ccccc2)C(=O)N[C@@H](CCC(=O)O)C(=O)N2CCCC[C@@H]2C(=O)N[C@@H](Cc2c[nH]c3ccccc23)C(=O)N[C@@H](Cc2ccc(O)cc2)C(=O)N[C@@H](CC(C)C)C(=O)N[C@H](C(=O)NCC(N)=O)CSCC(=O)N[C@@H](Cc2cc(F)c(F)c(F)c2)C(=O)N(C)[C@@H](Cc2ccc(F)cc2)C(=O)N1C [Example 10577] ({CH2CO}-[Phe(3,4,5-F3)][NMePhe(4-F)][NMeNle][dP][Dab]V[NMeF]E[dPip]WYLCG-NH2; thioether N-13)",1 to 9.9
3,CCCC[C@H]1C(=O)N(C)[C@@H](CCCC)C(=O)N[C@@H](CCCNC(=N)N)C(=O)N[C@H](C(=O)NCC(N)=O)CSCC(=O)N[C@@H](Cc2ccc(O)cc2)C(=O)N(C)[C@@H](C)C(=O)N[C@@H](CC(=O)O)C(=O)N2CCC[C@H]2C(=O)N[C@@H](Cc2c[nH]cn2)C(=O)N[C@@H](CC(C)C)C(=O)N2C[C@H](O)C[C@H]2C(=O)N[C@@H](Cc2c[nH]c3ccccc23)C(=O)N[C@@H](CCCCN)C(=O)N[C@@H](Cc2c[nH]c3ccccc23)C(=O)N1C [Example 11003] ({CH2CO}-Y[NMeA]DPHL[Hyp]WKW[NMeNle][NMeNle]RCG-NH2; thioether N-14),1 to 9.9
4,CCCC[C@H]1C(=O)N(C)[C@@H](CCCC)C(=O)N[C@@H](CCCN)C(=O)N[C@H](C(=O)NCC(N)=O)CSCC(=O)N[C@@H](Cc2ccc(OC)cc2)C(=O)N(C)[C@@H](C)C(=O)N[C@@H](CC(=O)O)C(=O)N2CCC[C@H]2C(=O)N[C@@H](CN)C(=O)N[C@@H](CCCCN)C(=O)N2C[C@H](O)C[C@H]2C(=O)N[C@@H](Cc2c[nH]c3ccccc23)C(=O)N[C@@H](CC(=O)O)C(=O)N[C@@H](Cc2c[nH]c3ccccc23)C(=O)N1C [Example 7129] ({CH2CO}-Y(Me)[NMeA]DP[Dap]K[Hyp]WDW[NMeNle][NMeNle][Orn]CG-NH2; thioether N-14),1 to 9.9
5,"CCCC[C@H]1C(=O)N2C[C@H](O)C[C@@H]2C(=O)N[C@@H](CC(=O)O)C(=O)N[C@@H](C(C)C)C(=O)N(C)[C@@H](Cc2ccccc2)C(=O)N[C@@H](CC(N)=O)C(=O)N2C[C@H](O)C[C@@H]2C(=O)N[C@@H](Cc2c[nH]c3ccccc23)C(=O)N[C@@H](Cc2ccc(O)cc2)C(=O)N[C@@H](CCCCN)C(=O)N[C@H](C(=O)NCC(N)=O)CSCC(=O)N[C@@H](Cc2cc(F)c(F)c(F)c2)C(=O)N(C)[C@@H](Cc2ccccc2)C(=O)N1C [Example 9362] ({CH2CO}-[Phe(3,4,5-F3)][NMeF][NMeNle][d(cisHyp)]DV[NMeF]N[d(cisHyp)]WYKCG-NH2; thioether N-13)",1 to 9.9

# Next, values leading:
row,IC50 [nM],SMILES
1,1 to 9.9,CCCC[C@H]1C(=O)N(C)[C@@H](CCCC)C(=O)N[C@@H](CCC(=O)O)C(=O)NC(C(=O)NCC(N)=O)CSCC(=O)N[C@@H](Cc2ccc(O)cc2)C(=O)N(C)[C@@H](C)C(=O)N[C@@H](CC(N)=O)C(=O)N2CCC[C@H]2C(=O)N[C@@H](CC(N)=O)C(=O)N[C@@H](CC(C)C)C(=O)N2C[C@H](O)C[C@H]2C(=O)N[C@@H](Cc2c[nH]c3ccccc23)C(=O)N[C@@H](CCO)C(=O)N[C@@H](Cc2c[nH]c3ccccc23)C(=O)N1C (stereo partly drawn) [Example 9185] ({CH2CO}-Y[NMeA]NPNL[Hyp]W[hSer]W[NMeNle][NMeNle]E[ξC]G-NH2; thioether N-14)
2,1 to 9.9,CCCC[C@H]1C(=O)N(C)[C@@H](CCCC)C(=O)N[C@@H](CC(C)C)C(=O)N[C@H](C(=O)NCC(N)=O)CSCC(=O)N[C@@H](Cc2ccc(O)cc2)C(=O)N(C)[C@@H](C)C(=O)N[C@@H](CC(N)=O)C(=O)N2CCC[C@H]2C(=O)N[C@@H](Cc2c[nH]cn2)C(=O)N[C@@H](CCC(=O)O)C(=O)N2C[C@H](O)C[C@H]2C(=O)N[C@@H]([C@@H](C)c2c[nH]c3ccccc23)C(=O)N[C@@H](CCN)C(=O)N[C@@H](Cc2c[nH]c3ccccc23)C(=O)N1C [Example 10555] ({CH2CO}-Y[NMeA]NPHE[Hyp][Trp(βS-Me)][Dab]W[NMeNle][NMeNle]LCG-NH2; thioether N-14)
3,1 to 9.9,CCCC[C@H]1C(=O)N(C)[C@@H](CCCC)C(=O)N[C@@H](CN)C(=O)N[C@H](C(=O)NCC(N)=O)CSCC(=O)N[C@@H](Cc2ccc(O)cc2)C(=O)N(C)[C@@H](C)C(=O)N[C@@H](CC(=O)O)C(=O)N2CCC[C@H]2C(=O)N[C@@H](Cc2c[nH]cn2)C(=O)N[C@@H](CCC(N)=O)C(=O)N2C[C@H](O)C[C@H]2C(=O)N[C@@H](Cc2c[nH]c3ccccc23)C(=O)N[C@@H](CO)C(=O)N[C@@H](Cc2cn(CC(=O)O)c3ccccc23)C(=O)N1C [Example 5163] ({CH2CO}-Y[NMeA]DPHQ[Hyp]WS[Trp(1-CH2COOH)][NMeNle][NMeNle][Dap]CG-NH2; thioether N-14)
4,10 to 99.9,"CCCC[C@H]1C(=O)N2C[C@H](O)C[C@@H]2C(=O)N[C@@H](CC(=O)O)C(=O)N[C@@H](C(C)C)C(=O)N(C)[C@@H](Cc2ccccc2)C(=O)N[C@@H](CCOC)C(=O)N2CCOC[C@@H]2C(=O)N[C@@H](Cc2c[nH]c3ccccc23)C(=O)N[C@@H](Cc2ccc(O)cc2)C(=O)N[C@@H](CC(C)C)C(=O)N[C@H](C(=O)NCC(N)=O)CSCC(=O)N[C@@H](Cc2cc(F)c(F)c(F)c2)C(=O)N(C)[C@@H](Cc2ccccc2)C(=O)N1C [Example 10194] ({CH2CO}-[Phe(3,4,5-F3)][NMeF][NMeNle][d(cisHyp)]DV[NMeF][hSer](Me)[X1]WYLCG-NH2; thioether N-13)"
5,1 to 9.9,CCCC[C@H]1C(=O)N2C[C@H](O)C[C@@H]2C(=O)N[C@@H](CC(=O)O)C(=O)N[C@@H](C(C)C)C(=O)N(C)[C@@H](Cc2ccccc2)C(=O)N[C@@H](CC(N)=O)C(=O)N2C[C@H](O)C[C@@H]2C(=O)N[C@@H](Cc2c[nH]c3ccccc23)C(=O)N[C@@H](Cc2ccc(O)cc2)C(=O)N[C@@H](CC(C)C)C(=O)N[C@H](C(=O)NCC(N)=O)CSCC(=O)N[C@@H](Cc2ccc(F)c(F)c2)C(=O)N(C)[C@@H](Cc2ccccc2)C(=O)N1C [Example 9292]
6,1 to 9.9,"CCCC[C@H]1C(=O)N2CCOC[C@@H]2C(=O)N[C@@H](CC(=O)O)C(=O)N[C@@H](C(C)C)C(=O)N(C)[C@@H](Cc2ccccc2)C(=O)N[C@@H](CCC(=O)O)C(=O)N2CCOC[C@@H]2C(=O)N[C@@H](Cc2c[nH]c3ccccc23)C(=O)N[C@@H](Cc2ccc(O)cc2)C(=O)N[C@@H](CC(C)C)C(=O)N[C@H](C(=O)NCC(N)=O)CSCC(=O)N[C@@H](Cc2ccc(F)c(F)c2)C(=O)N(C)[C@@H](Cc2ccccc2)C(=O)N1C [Example 9281] ({CH2CO}-[Phe(3,4-F2)][NMeF][NMeNle][X1]DV[NMeF]E[X1]WYLCG-NH2; thioether N-13)"

# Same assay, conditions: PD-L1-His 10 nM, PD-1-Ig 20 nM; read-out: HTRF Human PD-L1/PD-1 Binding Assay IC50
row,SMILES,IC50 [nM]
1,CCCC[C@H]1C(=O)N2CCC[C@@H]2C(=O)N[C@@H](CC(N)=O)C(=O)N[C@@H](C(C)C)C(=O)N(C)[C@@H](Cc2ccccc2)C(=O)N[C@@H](Cc2ccc(O)cc2)C(=O)N2CSC[C@@H]2C(=O)N[C@@H](Cc2c[nH]c3ccccc23)C(=O)N[C@@H](Cc2ccc(O)cc2)C(=O)N[C@@H](CC(C)C)C(=O)N[C@H](C(=O)NCC(N)=O)CSCC(=O)N[C@@H](Cc2ccccc2)C(=O)N(C)[C@@H](Cc2ccccc2)C(=O)N1C [Example 10069] ({CH2CO}-F[NMeF][NMeNle][dP]NV[NMeF]Y[dThz]WYLCG-NH2; thioether N-13),12.6
2,"CCCC[C@H]1C(=O)N2C[C@H](O)C[C@@H]2C(=O)N[C@@H](CC(=O)O)C(=O)N[C@@H](C(C)C)C(=O)N(C)[C@@H](Cc2ccccc2)C(=O)N[C@@H](CC(=O)O)C(=O)N2CCOC[C@@H]2C(=O)N[C@@H](Cc2c[nH]c3ccccc23)C(=O)N[C@@H](Cc2ccc(O)cc2)C(=O)N[C@@H](CCO)C(=O)N[C@H](C(=O)NCC(N)=O)CSCC(=O)N[C@@H](Cc2cc(F)c(F)c(F)c2)C(=O)N(C)[C@@H](Cc2ccccc2)C(=O)N1C [Example 10157] ({CH2CO}-[Phe(3,4,5-F3)][NMeF][NMeNle][d(cisHyp)]DV[NMeF]D[X1]WY[hSer]CG-NH2; thioether N-13)",4.1

# The next lines start with the values.
row,IC50 [nM],SMILES
1,1000,CCCC[C@H]1C(=O)N(C)[C@@H](CCCC)C(=O)N[C@@H](CCCNC(=N)N)C(=O)NC(C(=O)NCC(N)=O)CSCC(=O)N[C@@H](Cc2ccc(O)cc2)C(=O)N(C)[C@@H](C)C(=O)N[C@@H](CC(N)=O)C(=O)N2CCC[C@H]2C(=O)N[C@@H](CCO)C(=O)N[C@@H](CC(C)C)C(=O)N2CCC[C@H]2C(=O)N[C@@H](Cc2c[nH]c3ccccc23)C(=O)N[C@@H](CO)C(=O)N[C@@H](Cc2csc3ccccc23)C(=O)N1C (stereo partly drawn) [Example 9149] ({CH2CO}-Y[NMeA]NP[hSer]LPWS[Bta][NMeNle][NMeNle]R[ξC]G-NH2; thioether N-14)
2,1000,CCCC[C@H]1C(=O)N(C)CC(=O)N[C@@H](CC(=O)O)C(=O)N[C@@H](C(C)C)C(=O)N(C)[C@@H](Cc2ccccc2)C(=O)N[C@@H](Cc2ccc(O)cc2)C(=O)N2[C@H](CCC2(C)C)C(=O)N[C@@H](Cc2c[nH]c3ccccc23)C(=O)N[C@@H](Cc2ccc(O)cc2)C(=O)N[C@@H](CC(C)C)C(=O)N[C@H](C(=O)NCC(N)=O)CSCC(=O)N[C@@H](Cc2ccccc2)C(=O)N(C)[C@@H](Cc2ccccc2)C(=O)N1C [Example 3210] ({CH2CO}-F[NMeF][NMeNle][Sar]DV[NMeF]Y[X4]WYLCG-NH2; thioether N-13)
